3 compounds from ChEMBL document CHEMBL1201862, “PubChem BioAssay data set” (2004) can be followed below.

The structures appear in SMILES notation. Calls of active or inactive are those of the source.

A short description of assay [1]: Trypanosoma cruzi growth suppression in host cells – NIH3T3 host cells, beta-gal luminescence, confirmation (AID 2044).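 Note: intracellular parasites grown in NIH/3T3 mouse fibroblasts as host cells; luminescent beta-galactosidase reporter signal from transgenic T. cruzi replicating inside host cells; inhibitors lower the luminescence signal.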 Format: functional, cell-based.
In assay [2] the target is T1, Sentrin-specific protease 8 (Homo sapiens, UniProt Q96LD8).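 Note: luminescence read-out of SENP8 inhibition, dose-response confirmation following an ultra-high-throughput screen.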
T1 sequence (Q96LD8 whole entry): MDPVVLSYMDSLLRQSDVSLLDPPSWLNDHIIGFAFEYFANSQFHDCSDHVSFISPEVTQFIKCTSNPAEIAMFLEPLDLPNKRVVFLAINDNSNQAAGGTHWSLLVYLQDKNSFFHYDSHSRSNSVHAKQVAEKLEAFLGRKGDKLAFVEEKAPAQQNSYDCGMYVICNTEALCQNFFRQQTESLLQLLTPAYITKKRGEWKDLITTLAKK
Format: functional.

The target in another assay is Caspase-8 (Homo sapiens, UniProt Q14790). Nature of the assay: inhibitors of purified CASP8 protease – biochemical, Z-IETD-R110 fluorescence, cherry-picked samples, selectivity assay for caspase-6 inhibitor project, dose response (AID 743294).
For assay [3], the target named is T2, SUMO-activating enzyme (Homo sapiens, UniProt Q9UBT2). Nature of the assay: blockers of UBC9-mediated SUMO conjugation – biochemical, AlphaScreen, SUMOylation inhibitor project, confirmation (AID 2018). Format: functional. For orientation: In Alpha technology, singlet oxygen from a donor bead excites a nearby acceptor bead.
T2 sequence (Q9UBE0 whole entry): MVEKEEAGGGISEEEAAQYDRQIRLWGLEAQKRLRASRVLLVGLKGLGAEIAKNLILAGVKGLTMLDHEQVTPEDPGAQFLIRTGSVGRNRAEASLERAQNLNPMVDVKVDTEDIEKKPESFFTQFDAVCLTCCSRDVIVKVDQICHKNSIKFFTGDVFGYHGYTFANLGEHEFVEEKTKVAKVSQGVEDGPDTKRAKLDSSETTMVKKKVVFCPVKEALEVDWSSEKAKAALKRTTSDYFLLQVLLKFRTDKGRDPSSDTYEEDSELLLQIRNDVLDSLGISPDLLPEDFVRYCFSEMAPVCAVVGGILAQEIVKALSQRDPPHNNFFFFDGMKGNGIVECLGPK
T2 sequence (Q9UBT2 whole entry): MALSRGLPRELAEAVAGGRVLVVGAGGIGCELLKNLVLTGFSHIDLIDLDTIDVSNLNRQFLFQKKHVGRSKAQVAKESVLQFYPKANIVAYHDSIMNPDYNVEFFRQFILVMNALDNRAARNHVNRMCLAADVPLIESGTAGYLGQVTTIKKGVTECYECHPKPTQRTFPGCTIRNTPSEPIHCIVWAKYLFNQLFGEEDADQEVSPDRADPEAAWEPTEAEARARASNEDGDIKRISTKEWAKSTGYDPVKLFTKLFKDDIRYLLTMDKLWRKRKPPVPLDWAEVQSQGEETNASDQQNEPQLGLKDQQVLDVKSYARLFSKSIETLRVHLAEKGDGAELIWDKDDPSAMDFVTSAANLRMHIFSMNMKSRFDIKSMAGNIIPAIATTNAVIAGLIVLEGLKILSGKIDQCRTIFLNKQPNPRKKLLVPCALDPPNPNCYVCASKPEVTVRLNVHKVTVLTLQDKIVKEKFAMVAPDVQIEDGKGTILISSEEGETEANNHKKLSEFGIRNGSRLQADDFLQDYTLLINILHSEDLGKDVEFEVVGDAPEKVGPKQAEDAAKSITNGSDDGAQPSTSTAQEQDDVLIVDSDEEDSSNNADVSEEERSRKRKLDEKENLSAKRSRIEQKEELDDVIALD
Assay [4] in a line: HEK-293T cell viability reduction – luminescence, B-cell screen hits, cytotoxicity control for BCR NF-kB inhibitor project, dose response (AID 489021).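 Note: HEK-293T cells carrying an NF-kB luciferase reporter; cells exposed to compound for about 14 hours before viability readout.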 Format: functional, cell-based.
Assay [5] concerns the target T2, SUMO-activating enzyme. Nature of the assay: blockers of SAE1/SAE2–UBC9 SUMO transfer – biochemical, HTRF, uHTS, primary screen (AID 2006). Format: protein-complex assay. A general note: Time-resolved FRET reads energy transfer from a long-lived donor to a nearby acceptor.
Assay [6] deals with Serine/threonine-protein phosphatase PP1-alpha catalytic subunit (Homo sapiens, UniProt P62136). Nature of the assay: inhibition of protein phosphatase 1 activity – biochemical, fluorescence, dose response (AID 2394).
For assay [7], the target named is 5'-AMP-activated protein kinase catalytic subunit alpha-1 (Homo sapiens, UniProt Q13131). Format: functional.
For a further assay, the target named is LIM domain kinase 1 (Homo sapiens, UniProt P53667). Nature of the assay: Navigating the Kinome. Panel member name: LIMK1. The assay is classed as functional.
Assay [8] has as its target Mast/stem cell growth factor receptor Kit (Homo sapiens, UniProt P10721). The assay is classed as functional.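 Note: KIT entry within a kinase panel assay.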
For assay [9], the target named is Tyrosine-protein kinase receptor UFO (Homo sapiens, UniProt P30530). The assay is classed as functional.
For assay [10], the target named is Death-associated protein kinase 3 (Homo sapiens, UniProt O43293). Format: functional.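 Note: measured as one member of a kinome-wide profiling panel.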
The target of assay [11] is Homeodomain-interacting protein kinase 4 (Homo sapiens, UniProt Q8NE63). Format: functional.
Assay [12] concerns the target Casein kinase I isoform delta (Homo sapiens, UniProt P48730). The assay is classed as functional.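 Note: measured as one member (CSNK1D) of a kinome panel.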
The target in assay [13] is Leucine-rich repeat serine/threonine-protein kinase 2 (Homo sapiens, UniProt Q5S007). Format: functional.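 Note: value from a broad kinome-wide panel profiling study in which LRRK2 was one of the kinases tested.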
The target in assay [14] is BDNF/NT-3 growth factors receptor (Homo sapiens, UniProt Q16620). The assay is classed as functional.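 Note: NTRK2 measured as one member of a broad kinome-wide kinase profiling panel.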
Sequence of BDNF/NT-3 growth factors receptor (Q16620 whole entry): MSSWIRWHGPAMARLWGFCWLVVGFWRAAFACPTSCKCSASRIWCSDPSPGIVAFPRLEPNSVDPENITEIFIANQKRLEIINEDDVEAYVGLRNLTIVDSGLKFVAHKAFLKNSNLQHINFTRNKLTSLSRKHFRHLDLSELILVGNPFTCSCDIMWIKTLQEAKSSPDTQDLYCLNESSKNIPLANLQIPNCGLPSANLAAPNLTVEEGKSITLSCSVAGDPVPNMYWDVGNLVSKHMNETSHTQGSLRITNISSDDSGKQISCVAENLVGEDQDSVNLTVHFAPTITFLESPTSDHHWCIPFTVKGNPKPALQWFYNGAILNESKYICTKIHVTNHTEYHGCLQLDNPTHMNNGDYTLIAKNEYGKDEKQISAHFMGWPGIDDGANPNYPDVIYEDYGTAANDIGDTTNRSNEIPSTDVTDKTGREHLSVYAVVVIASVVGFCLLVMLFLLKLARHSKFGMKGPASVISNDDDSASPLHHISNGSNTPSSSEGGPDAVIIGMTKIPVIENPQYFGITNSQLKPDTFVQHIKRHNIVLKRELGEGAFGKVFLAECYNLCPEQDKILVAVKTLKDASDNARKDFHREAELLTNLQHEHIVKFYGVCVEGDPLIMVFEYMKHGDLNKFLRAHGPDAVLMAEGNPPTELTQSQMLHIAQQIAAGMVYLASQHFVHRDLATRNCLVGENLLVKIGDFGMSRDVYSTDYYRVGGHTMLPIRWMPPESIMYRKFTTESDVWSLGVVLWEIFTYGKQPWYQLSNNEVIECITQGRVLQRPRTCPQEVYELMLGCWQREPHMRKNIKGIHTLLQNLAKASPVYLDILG
In assay [15] the target is Serine/threonine-protein kinase D3 (Homo sapiens, UniProt O94806). Format: functional.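 Note: determined within a kinase panel screen, with PRKCN as the panel member.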
Assay [16] concerns the target Eukaryotic elongation factor 2 kinase (Homo sapiens, UniProt O00418). The assay is classed as functional.
Assay [17] concerns the target Serine/threonine-protein kinase PAK 1 (Homo sapiens, UniProt Q13153). The assay is classed as functional.
The target of assay [18] is Insulin-like growth factor 1 receptor (Homo sapiens, UniProt P08069). Nature of the assay: Navigating the Kinome. Panel member name: IGF1R. Format: functional.
Assay [19] concerns the target Ribosomal protein S6 kinase beta-1 (Homo sapiens, UniProt P23443). The assay is classed as functional.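 Note: measured as one member of a kinome-wide profiling panel.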
In assay [20] the target is Serine/threonine-protein kinase 17A (Homo sapiens, UniProt Q9UEE5). Format: functional.
The target in assay [21] is Dual specificity tyrosine-phosphorylation-regulated kinase 3 (Homo sapiens, UniProt O43781). The assay is classed as functional.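 Note: measured as one member of a broad kinase panel.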
Assay [22] deals with Serine/threonine-protein kinase BRSK1 (Homo sapiens, UniProt Q8TDC3). Format: functional.
Sequence of Serine/threonine-protein kinase BRSK1 (Q8TDC3 whole entry): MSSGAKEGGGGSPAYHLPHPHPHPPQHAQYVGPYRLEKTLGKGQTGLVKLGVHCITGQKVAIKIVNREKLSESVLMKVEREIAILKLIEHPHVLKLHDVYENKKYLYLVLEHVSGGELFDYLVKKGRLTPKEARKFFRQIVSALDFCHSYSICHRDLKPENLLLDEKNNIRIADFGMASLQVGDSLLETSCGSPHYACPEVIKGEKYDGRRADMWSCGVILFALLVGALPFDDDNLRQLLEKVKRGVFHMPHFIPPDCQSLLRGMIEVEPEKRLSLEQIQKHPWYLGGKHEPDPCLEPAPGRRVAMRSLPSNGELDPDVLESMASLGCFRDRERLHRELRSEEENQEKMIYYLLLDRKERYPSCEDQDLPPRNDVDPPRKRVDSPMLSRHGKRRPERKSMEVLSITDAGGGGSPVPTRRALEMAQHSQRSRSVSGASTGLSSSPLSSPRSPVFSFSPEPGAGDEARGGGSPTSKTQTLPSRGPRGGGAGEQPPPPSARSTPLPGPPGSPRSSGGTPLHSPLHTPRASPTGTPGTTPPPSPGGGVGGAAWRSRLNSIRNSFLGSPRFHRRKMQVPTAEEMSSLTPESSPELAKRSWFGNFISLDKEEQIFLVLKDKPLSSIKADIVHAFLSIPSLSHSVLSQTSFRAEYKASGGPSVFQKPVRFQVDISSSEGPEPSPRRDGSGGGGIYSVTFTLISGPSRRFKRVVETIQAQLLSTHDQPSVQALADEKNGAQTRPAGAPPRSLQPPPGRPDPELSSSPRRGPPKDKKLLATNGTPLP
Assay [23] addresses Tyrosine-protein kinase JAK3 (Homo sapiens, UniProt P52333). Format: functional.
Assay [24] deals with Tyrosine-protein kinase SYK (Homo sapiens, UniProt P43405). The assay is classed as functional.
The target in assay [25] is RAC-gamma serine/threonine-protein kinase (Homo sapiens, UniProt Q9Y243). The assay is classed as functional.
The target in assay [26] is Dual specificity protein kinase CLK4 (Homo sapiens, UniProt Q9HAZ1). Format: functional.
Assay [27] has as its target Receptor tyrosine-protein kinase erbB-4 (Homo sapiens, UniProt Q15303). Format: functional.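 Note: ERBB4 member of a kinome-wide kinase profiling panel.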
For another assay, the target named is Activin receptor type-1 (Homo sapiens, UniProt Q04771). Nature of the assay: Navigating the Kinome. Panel member name: ACVR1. The assay is classed as functional.

Sequence of Casein kinase I isoform delta (P48730 whole entry, canonical isoform): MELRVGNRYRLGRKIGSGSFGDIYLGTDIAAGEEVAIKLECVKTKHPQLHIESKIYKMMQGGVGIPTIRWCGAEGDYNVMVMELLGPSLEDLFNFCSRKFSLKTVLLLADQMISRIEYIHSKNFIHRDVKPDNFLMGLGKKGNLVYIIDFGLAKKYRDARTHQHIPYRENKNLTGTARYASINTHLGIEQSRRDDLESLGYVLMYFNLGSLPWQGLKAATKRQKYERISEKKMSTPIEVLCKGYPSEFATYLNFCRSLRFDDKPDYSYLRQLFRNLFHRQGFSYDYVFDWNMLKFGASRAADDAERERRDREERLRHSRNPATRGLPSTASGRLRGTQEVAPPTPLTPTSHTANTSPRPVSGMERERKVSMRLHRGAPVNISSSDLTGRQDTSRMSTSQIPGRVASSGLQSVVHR
Sequence of Receptor tyrosine-protein kinase erbB-4 (Q15303 whole entry): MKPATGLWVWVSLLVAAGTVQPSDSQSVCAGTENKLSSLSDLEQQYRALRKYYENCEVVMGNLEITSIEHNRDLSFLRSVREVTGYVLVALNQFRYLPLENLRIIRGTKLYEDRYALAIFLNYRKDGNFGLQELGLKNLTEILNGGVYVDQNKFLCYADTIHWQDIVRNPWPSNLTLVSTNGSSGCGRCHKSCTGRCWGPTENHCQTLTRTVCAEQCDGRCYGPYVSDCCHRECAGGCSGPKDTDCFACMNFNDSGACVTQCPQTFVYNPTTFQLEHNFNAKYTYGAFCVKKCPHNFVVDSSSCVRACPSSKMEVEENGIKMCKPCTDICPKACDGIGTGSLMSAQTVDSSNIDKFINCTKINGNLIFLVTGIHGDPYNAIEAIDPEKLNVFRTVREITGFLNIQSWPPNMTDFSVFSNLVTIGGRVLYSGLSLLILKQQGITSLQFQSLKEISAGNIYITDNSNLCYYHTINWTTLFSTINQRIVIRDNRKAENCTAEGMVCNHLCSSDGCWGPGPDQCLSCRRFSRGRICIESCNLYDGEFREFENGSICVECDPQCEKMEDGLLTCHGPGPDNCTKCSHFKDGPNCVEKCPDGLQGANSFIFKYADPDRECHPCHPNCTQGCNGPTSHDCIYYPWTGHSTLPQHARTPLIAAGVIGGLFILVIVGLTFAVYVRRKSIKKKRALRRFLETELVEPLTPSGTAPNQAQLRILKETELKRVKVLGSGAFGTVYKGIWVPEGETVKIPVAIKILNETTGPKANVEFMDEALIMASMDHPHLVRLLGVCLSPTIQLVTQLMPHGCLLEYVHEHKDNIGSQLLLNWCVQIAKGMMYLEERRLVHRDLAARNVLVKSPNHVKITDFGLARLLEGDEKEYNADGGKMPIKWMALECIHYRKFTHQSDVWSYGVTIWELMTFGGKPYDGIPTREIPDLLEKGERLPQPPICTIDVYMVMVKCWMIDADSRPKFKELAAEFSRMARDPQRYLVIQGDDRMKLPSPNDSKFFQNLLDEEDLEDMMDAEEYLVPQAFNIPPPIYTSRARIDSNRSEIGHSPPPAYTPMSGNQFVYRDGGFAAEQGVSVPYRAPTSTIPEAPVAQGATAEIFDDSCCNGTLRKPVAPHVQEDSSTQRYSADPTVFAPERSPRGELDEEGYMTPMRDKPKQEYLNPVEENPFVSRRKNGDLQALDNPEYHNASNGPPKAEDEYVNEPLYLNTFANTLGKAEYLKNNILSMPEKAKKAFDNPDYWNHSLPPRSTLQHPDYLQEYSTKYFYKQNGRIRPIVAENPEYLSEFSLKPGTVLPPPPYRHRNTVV
Sequence of Ribosomal protein S6 kinase beta-1 (P23443 whole entry): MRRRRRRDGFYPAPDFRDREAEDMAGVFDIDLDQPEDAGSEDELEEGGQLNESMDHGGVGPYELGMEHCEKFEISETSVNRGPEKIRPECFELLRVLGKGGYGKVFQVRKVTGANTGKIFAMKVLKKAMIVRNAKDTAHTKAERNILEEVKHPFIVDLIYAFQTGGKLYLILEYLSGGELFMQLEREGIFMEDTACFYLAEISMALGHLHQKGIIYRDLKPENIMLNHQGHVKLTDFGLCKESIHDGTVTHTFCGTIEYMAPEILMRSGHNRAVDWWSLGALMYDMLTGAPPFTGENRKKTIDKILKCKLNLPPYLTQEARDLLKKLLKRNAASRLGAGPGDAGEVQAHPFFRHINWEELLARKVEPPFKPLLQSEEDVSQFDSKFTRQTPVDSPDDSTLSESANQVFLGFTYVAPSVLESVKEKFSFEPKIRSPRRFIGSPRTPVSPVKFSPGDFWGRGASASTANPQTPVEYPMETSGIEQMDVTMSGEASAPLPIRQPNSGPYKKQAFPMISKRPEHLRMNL

In the case of `Cc1c(NC(=O)C(C)OC(=O)c2ccc([N+](=O)[O-])s2)c(=O)n(-c2ccccc2)n1C` (stereo not given), the EC50 in assay [1] was 1.59 µM (active). Moreover, in assay [2], the IC50 is 6.5 µM (active). On Caspase-8, the AC50 was 22.8 µM (active).
With `COc1cc(Br)c(C(=O)c2nccc3cc(OC)c(OC)cc23)cc1OC`, the IC50 on SUMO-activating enzyme [3] was 0.42 µM (active); in assay [4] it was > 80 µM (inactive); at SUMO-activating enzyme [5], 12.8 µM (active); in assay [6], 52.1 µM (not active).
`CC(N)C1CCC(C(=O)Nc2ccnc3[nH]ccc23)CC1` (stereo not given): the Ki is > 2.51 µM (inactive) in [7]; 1 µM (active) on LIM domain kinase 1; > 1.26 µM (inactive) in assay [8]; > 2 µM (inactive) in [9]; > 1.26 µM (inactive) in [10]; > 7.94 µM (inactive) in assay [11]. Moreover, the Ki in assay [12] was > 7.94 µM (inactive); in [13], 0.02 µM (active); in assay [14], > 3.16 µM (inactive); in assay [15], 0.398 µM (active); in assay [16] it was > 3.98 µM (inactive); in assay [17] it was > 10 µM (inactive). Also, the Ki in assay [18] was > 2 µM (inactive); in assay [19], 0.501 µM (active); in [20], 3.98 µM (active); in assay [21], > 6.31 µM (inactive); in assay [22], 3.98 µM (active); in [23] it was > 3.98 µM (inactive). Moreover, the Ki in assay [24] was > 1.58 µM (inactive); in assay [25] it was 2.51 µM (active); in assay [26] it was 0.158 µM (active); in assay [27], > 3.98 µM (inactive); at Activin receptor type-1, 1 µM (active).

The EC50 is the concentration at which the effect is half-maximal. A word on the IC50: it is the concentration needed to halve the response being measured. The term AC50 denotes the midpoint of the concentration-response curve, whichever way the signal moves. What is called Ki is a dissociation constant, usually derived from enzyme kinetics or from competition with a known ligand.
